The target of assay [1] is T1, MAP/microtubule affinity-regulating kinase 4 (Homo sapiens) (UniProt Q96L34).
T1 sequence (whole entry): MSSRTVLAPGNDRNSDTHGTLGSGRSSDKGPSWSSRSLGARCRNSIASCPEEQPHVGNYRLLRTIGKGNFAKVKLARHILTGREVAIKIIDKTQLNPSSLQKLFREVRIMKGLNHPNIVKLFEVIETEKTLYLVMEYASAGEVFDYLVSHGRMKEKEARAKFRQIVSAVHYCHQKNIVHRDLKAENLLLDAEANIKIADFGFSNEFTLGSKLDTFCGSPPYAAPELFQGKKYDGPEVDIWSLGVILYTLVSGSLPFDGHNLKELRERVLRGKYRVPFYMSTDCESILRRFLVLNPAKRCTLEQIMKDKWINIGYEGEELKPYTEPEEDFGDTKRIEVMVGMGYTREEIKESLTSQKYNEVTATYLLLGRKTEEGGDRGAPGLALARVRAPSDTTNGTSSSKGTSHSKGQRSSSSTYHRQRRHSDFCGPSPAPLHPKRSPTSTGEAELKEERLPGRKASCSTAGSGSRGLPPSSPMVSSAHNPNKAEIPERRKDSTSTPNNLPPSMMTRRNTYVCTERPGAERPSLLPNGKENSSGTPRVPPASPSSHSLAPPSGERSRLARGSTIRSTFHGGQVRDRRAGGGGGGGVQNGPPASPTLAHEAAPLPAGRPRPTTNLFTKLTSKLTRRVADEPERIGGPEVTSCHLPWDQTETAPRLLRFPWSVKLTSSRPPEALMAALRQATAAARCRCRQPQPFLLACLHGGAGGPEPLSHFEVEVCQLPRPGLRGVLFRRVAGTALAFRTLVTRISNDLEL
To be noted: at 10 µM.

In assay [2] the target is T2, Serine/threonine-protein kinase D2 (Homo sapiens) (UniProt Q9BZL6).
T2 sequence (whole entry): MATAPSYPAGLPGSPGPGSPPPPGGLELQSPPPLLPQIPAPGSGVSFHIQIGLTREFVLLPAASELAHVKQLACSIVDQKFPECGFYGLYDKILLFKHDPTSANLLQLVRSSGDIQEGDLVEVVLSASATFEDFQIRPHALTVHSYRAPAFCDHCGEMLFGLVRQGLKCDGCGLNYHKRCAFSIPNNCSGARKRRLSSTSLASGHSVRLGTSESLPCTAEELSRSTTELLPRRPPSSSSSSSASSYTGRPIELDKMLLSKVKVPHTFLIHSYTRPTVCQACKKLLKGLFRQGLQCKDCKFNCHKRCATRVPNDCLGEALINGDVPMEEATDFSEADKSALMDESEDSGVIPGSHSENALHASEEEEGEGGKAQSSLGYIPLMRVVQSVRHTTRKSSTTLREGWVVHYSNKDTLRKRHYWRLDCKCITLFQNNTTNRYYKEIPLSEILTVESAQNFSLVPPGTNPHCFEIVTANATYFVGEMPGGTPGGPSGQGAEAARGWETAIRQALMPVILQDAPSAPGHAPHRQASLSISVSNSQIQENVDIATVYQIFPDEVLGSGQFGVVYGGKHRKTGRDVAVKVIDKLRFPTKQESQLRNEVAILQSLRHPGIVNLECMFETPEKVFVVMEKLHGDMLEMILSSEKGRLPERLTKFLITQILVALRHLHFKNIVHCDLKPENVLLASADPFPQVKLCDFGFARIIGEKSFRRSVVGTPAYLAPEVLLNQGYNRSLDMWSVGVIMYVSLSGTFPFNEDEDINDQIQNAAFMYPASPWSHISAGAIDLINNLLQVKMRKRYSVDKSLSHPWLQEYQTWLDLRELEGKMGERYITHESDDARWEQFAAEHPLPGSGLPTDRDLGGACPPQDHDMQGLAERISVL
Description: Selectivity interaction (KinomeScan (DiscoverX)) EUB0000695a PRKD2. The note with it: at 100 nM.

The target in assay [3] is T3, Cytoplasmic tyrosine-protein kinase BMX (Homo sapiens) (UniProt P51813).
T3 sequence (whole entry): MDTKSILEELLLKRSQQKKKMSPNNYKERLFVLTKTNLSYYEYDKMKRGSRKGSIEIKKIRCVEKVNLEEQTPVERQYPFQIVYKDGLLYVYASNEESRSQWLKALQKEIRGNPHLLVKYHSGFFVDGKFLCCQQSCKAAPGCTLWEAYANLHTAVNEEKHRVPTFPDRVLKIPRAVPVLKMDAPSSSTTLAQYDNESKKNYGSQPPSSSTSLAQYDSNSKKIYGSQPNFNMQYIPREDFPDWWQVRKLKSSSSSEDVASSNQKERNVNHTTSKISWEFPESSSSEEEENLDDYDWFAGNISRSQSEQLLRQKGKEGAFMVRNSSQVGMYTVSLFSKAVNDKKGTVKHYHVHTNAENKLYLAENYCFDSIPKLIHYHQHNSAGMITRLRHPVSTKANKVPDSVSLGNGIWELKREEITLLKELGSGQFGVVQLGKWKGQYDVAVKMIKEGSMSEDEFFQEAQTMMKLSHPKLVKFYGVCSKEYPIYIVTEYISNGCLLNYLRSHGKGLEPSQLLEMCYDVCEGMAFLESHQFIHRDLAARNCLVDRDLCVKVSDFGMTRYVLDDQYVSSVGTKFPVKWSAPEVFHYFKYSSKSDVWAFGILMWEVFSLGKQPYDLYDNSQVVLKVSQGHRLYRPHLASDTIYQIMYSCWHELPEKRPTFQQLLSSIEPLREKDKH
The experiment in a line: Selectivity interaction (Kinase panel (DSF assay)) EUB0001559a BMX.

Take `CCN(CC)CCCCNc1ncc2cc(-c3cc(OC)cc(OC)c3)c(NC(=O)NC(C)(C)C)nc2n1`: in assay [1], the % of control stood at 100%. Turning to `Cc1cc(F)c(C(=O)Nc2cccc(-c3nncn3C(C)C)n2)cc1-n1cnc(C2CC2)c1`, the % of control in assay [2] stood at 58%. Compound `CN(C(=O)c1cnn2cccnc12)c1cc2c(cc1N1CCOCC1)C(=O)N(C[C@@H](F)C(C)(C)O)C2` gave a dTM in assay [3] of 0.1 K.

For the origin of these results see ChEMBL document CHEMBL5465560, “Selectivity Literature for EUbOPEN Chemogenomic Library” (2024).
